{"source": "patent US7553503B2", "about": "“Phyto-nutraceutical synergistic composition for Parkinson's Disease” (priority 2006, dated 2009)", "origin": "cited, not measured here", "key": {"ischemic brain injury": {"test_system": "ischemic brain injury", "conditions": "transient focal ischemia"}, "[1]": {"test_system": "bacterial resistance mechanism (multidrug pump)", "conditions": "in vitro, with 5'-methoxyhydnocarpin"}, "[2]": {"test_system": "HIV-1 viral long terminal repeat-directed gene expression"}, "substantia nigra neurons": {"test_system": "substantia nigra neurons", "conditions": "MPTP-induced"}, "[3]": {"test_system": "brain mitochondria and membranes"}, "mouse brain": {"test_system": "mouse brain", "conditions": "pretreatment"}, "[4]": {"test_system": "patients with early-stage Parkinson's disease"}, "dopamine D1 receptors": {"molecular_target": "dopamine D1 receptors (Homo sapiens, UniProt P21728)", "sequence (P21728 whole entry)": "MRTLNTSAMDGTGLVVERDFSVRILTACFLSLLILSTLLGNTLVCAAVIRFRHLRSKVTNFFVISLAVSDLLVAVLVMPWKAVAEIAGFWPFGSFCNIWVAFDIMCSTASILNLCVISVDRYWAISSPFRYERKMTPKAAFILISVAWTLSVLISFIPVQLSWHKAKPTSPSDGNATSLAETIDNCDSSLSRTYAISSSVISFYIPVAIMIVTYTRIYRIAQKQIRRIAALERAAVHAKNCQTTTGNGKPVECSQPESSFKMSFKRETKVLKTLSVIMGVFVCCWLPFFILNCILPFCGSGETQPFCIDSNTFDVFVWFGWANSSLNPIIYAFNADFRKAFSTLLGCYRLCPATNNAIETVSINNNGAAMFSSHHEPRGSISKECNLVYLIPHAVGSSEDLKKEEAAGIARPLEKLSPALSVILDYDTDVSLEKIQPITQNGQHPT"}, "dopamine D2 receptors": {"molecular_target": "dopamine D2 receptors (Homo sapiens, UniProt P14416)", "sequence (P14416 whole entry)": "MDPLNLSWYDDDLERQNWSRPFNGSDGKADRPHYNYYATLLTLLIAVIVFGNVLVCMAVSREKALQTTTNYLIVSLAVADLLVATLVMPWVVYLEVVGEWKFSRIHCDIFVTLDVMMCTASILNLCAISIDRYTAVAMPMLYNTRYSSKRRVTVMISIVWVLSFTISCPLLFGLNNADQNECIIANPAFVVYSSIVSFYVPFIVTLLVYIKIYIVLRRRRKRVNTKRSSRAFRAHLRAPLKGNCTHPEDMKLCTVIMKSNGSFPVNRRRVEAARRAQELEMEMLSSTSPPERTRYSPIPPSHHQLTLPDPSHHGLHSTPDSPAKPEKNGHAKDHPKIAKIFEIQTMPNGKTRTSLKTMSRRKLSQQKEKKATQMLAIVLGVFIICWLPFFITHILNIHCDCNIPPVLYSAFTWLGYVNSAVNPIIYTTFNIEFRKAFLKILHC"}, "[5]": {"test_system": "dopamine and DOPAC in striatum, DA in hypothalamus", "conditions": "after administration"}, "[6]": {"test_system": "alpha 1-adrenergic receptors"}, "[7]": {"test_system": "alpha 2-adrenergic receptors"}, "[8]": {"test_system": "patients with tardive dyskinesia", "conditions": "especially tardive dyskinesia for 5 years or less"}}}
{"molecule": "CC(C)(O)[C@@H]1CC[C@](C)([C@H]2[C@@H](O)C[C@@]3(C)[C@@H]4C[C@H](O[C@@H]5O[C@H](CO)[C@@H](O)[C@H](O)[C@H]5O)[C@H]5C(C)(C)[C@@H](O[C@@H]6OC[C@@H](O)[C@H](O)[C@H]6O)CC[C@@]56C[C@@]46CC[C@]23C)O1", "note": "[Astragaloside IV]", "values": [{"measurement": "infarct volume", "setting": "ischemic brain injury", "result": "markedly and significantly reduced"}]}
{"molecule": "COc1ccc2cc3[n+](cc2c1OC)CCc1cc2c(cc1-3)OCO2", "note": "[Berberine]", "values": [{"measurement": "activity of Berberine alkaloids in the presence of 5'-MHC", "setting": "[1]", "result": "strongly potentiated"}]}
{"molecule": "CC1(C)CCC2=C(O1)c1ccccc1C(=O)C2=O", "note": "[Beta-lapachone]", "values": [{"measurement": "inhibition of HIV-1 viral long terminal repeat-directed gene expression", "setting": "[2]", "result": "potent and selective inhibitor"}]}
{"molecule": "CC(C)=CCC[C@](C)(O[C@@H]1O[C@H](CO)[C@@H](O)[C@H](O)[C@H]1O)[C@H]1CC[C@]2(C)[C@@H]1[C@H](O)C[C@@H]1[C@@]3(C)CC[C@H](O)C(C)(C)[C@@H]3[C@@H](O[C@@H]3O[C@H](CO)[C@@H](O)[C@H](O)[C@H]3O)C[C@]12C", "note": "[Ginsenoside Rg1]", "values": [{"measurement": "substantia nigra neurons loss", "setting": "substantia nigra neurons", "result": "protect against substantia nigra neurons loss"}]}
{"molecule": "COc1cc2c(c(O)c1OC)-c1c(cc(OC)c(OC)c1OC)C[C@@H](C)[C@@H](C)C2", "note": "[Schisanhenol]", "values": [{"measurement": "peroxidative damages of brain mitochondria and membranes", "setting": "[3]", "result": "completely inhibited"}]}
{"molecule": "COc1cc2c(c(OC)c1OC)-c1c(cc(OC)c(OC)c1OC)C[C@](C)(O)[C@@H](C)C2", "note": "[Schizandrin]", "values": [{"measurement": "potency of protective action against oxidative stress relative to Schisanhenol", "setting": "[3]", "result": "weaker than that of Schisanhenol"}]}
{"molecule": "COc1cc2c(c(OC)c1OC)-c1c(cc3c(c1OC)OCO3)CC(C)C(C)C2", "note": "(stereo not drawn) [Schizandrins B]", "values": [{"measurement": "extent of lipid peroxidation in brain tissue", "setting": "mouse brain", "result": "dose-dependent decrease"}]}
{"molecule": "COC1=C(OC)C(=O)C(C/C=C(\\C)CC/C=C(\\C)CC/C=C(\\C)CC/C=C(\\C)CC/C=C(\\C)CC/C=C(\\C)CC/C=C(\\C)CC/C=C(\\C)CC/C=C(\\C)CCC=C(C)C)=C(C)C1=O", "note": "[coenzyme Q10, Coenzyme Q10]", "values": [{"measurement": "disease progression", "setting": "[4]", "result": "can slow disease progression"}]}
{"molecule": "COc1cc2c(c(OC)c1OC)-c1c(cc(OC)c(OC)c1OC)C[C@](C)(O)[C@@H](C)C2", "note": "[schizandrol A]", "values": [{"measurement": "affinity for dopamine D1 receptors", "setting": "dopamine D1 receptors", "result": "no affinity"}, {"measurement": "affinity for serotonin receptors", "setting": "serotonin receptors", "result": "no affinity"}, {"measurement": "affinity for dopamine D2 receptors", "setting": "dopamine D2 receptors", "result": "no affinity"}, {"measurement": "dopamine and its metabolite DOPAC (in striatum) and DA (in hypothalamus)", "setting": "[5]", "result": "Significant elevations"}, {"measurement": "affinity for alpha 1-adrenergic receptors", "setting": "[6]", "result": "no affinity"}, {"measurement": "affinity for alpha 2-adrenergic receptors", "setting": "[7]", "result": "no affinity"}]}
{"molecule": "Vitamin E", "values": [{"measurement": "severity of tardive dyskinesia", "setting": "[8]", "result": "appears to be effective"}]}
